ChEMBL document CHEMBL3885881, “DrugMatrix”

Species: Rattus norvegicus
Assay: DrugMatrix - Regimen: Daily Repeat
Assay type: toxicity, organism-based, Sprague-Dawley
Parameters: regimen Daily Repeat, gender Male, age 6-8 weeks
Settings: in vivo, po, route oral GAVAGE, vehicle .5 % CMC; for ABSOLUTE BASOPHIL / ABSOLUTE EOSINOPHIL / ABSOLUTE LYMPHOCYTE / ABSOLUTE MONOCYTE / ABSOLUTE SEGMENTED NEUTROPHIL / BASOPHIL / EOSINOPHIL / ERYTHROCYTE COUNT / HEMATOCRIT / HEMOGLOBIN / LEUKOCYTE COUNT / LYMPHOCYTE / MEAN CORPUSCULAR HEMOGLOBIN / MEAN CORPUSCULAR HEMOGLOBIN CONCENTRATION / MEAN CORPUSCULAR VOLUME / MONOCYTE / NEUTROPHIL / NUCLEATED RED BLOOD CELLS / PLATELET COUNT: tissue Blood; for ALANINE AMINOTRANSFERASE / ALBUMIN / ALKALINE PHOSPHATASE / ASPARTATE AMINOTRANSFERASE / BLOOD UREA NITROGEN / CARBON DIOXIDE / CHLORIDE / CHOLESTEROL / CREATINE PHOSPHOKINASE / CREATININE / GLUCOSE / LACTATE DEHYDROGENASE / LIPASE / PHOSPHORUS / POTASSIUM / SODIUM / TOTAL BILIRUBIN / TOTAL PROTEIN / URIC ACID: tissue Plasma
[1] = 0 mg/kg, 72 h, dose level Control, time 3 day
[2] = 0 mg/kg, 120 h, dose level Control, time 5 day
[3] = 1200 mg/kg, 72 h, dose level High, time 3 day

SMILES: CCC[C@@H]1C[C@@H](C(=O)N[C@@H]([C@H]2O[C@H](SC)[C@H](O)[C@@H](O)[C@H]2O)[C@@H](C)O)N(C)C1 [LINCOMYCIN]
- ABSOLUTE BASOPHIL [1]: 0 CELLS/uL
- ABSOLUTE EOSINOPHIL [1]: 0 CELLS/uL
- ABSOLUTE LYMPHOCYTE [1]: 12269.67 CELLS/uL
- ABSOLUTE MONOCYTE [1]: 160.33 CELLS/uL
- ABSOLUTE SEGMENTED NEUTROPHIL [1]: 970 CELLS/uL
- BASOPHIL [1]: 0%
- EOSINOPHIL [1]: 0%
- ERYTHROCYTE COUNT [1]: 5.76 x10E6/uL
- HEMATOCRIT [1]: 36.57%
- HEMOGLOBIN [1]: 14.22 G/DL
- LEUKOCYTE COUNT [1]: 13.4 x10E3/uL
- LYMPHOCYTE [1]: 91.67%
- MEAN CORPUSCULAR HEMOGLOBIN [1]: 24.67 pg
- MEAN CORPUSCULAR HEMOGLOBIN CONCENTRATION [1]: 38.85 G/DL
- MEAN CORPUSCULAR VOLUME [1]: 63.52 fL
- MONOCYTE [1]: 1.17%
- NEUTROPHIL [1]: 7.17%
- NUCLEATED RED BLOOD CELLS [1]: 0.33 /100WBC
- PLATELET COUNT [1]: 1250.83 x10E3/uL
- ALANINE AMINOTRANSFERASE [1]: 49.17 u/L
- ALBUMIN [1]: 4.33 G/DL
- ALKALINE PHOSPHATASE [1]: 378.5 u/L
- ASPARTATE AMINOTRANSFERASE [1]: 82.17 u/L
- BLOOD UREA NITROGEN [1]: 15 mg/dL
- CARBON DIOXIDE [1]: 34.33 mmol/L
- CHLORIDE [1]: 99.17 MEQ/L
- CHOLESTEROL [1]: 71.17 mg/dL
- CREATINE PHOSPHOKINASE [1]: 258.67 u/L
- CREATININE [1]: 0.18 mg/dL
- GLUCOSE [1]: 142.67 mg/dL
- LACTATE DEHYDROGENASE [1]: 154.33 u/L
- LIPASE [1]: 9 u/L
- PHOSPHORUS [1]: 11.67 mg/dL
- POTASSIUM [1]: 7.13 MEQ/L
- SODIUM [1]: 142.22 MEQ/L
- TOTAL BILIRUBIN [1]: 0.18 mg/dL
- TOTAL PROTEIN [1]: 5.77 G/DL
- URIC ACID [1]: 1.55 mg/dL
- ABSOLUTE BASOPHIL [2]: 0 CELLS/uL
- ABSOLUTE EOSINOPHIL [2]: 23.33 CELLS/uL
- ABSOLUTE LYMPHOCYTE [2]: 14943.67 CELLS/uL
- ABSOLUTE MONOCYTE [2]: 32 CELLS/uL
- ABSOLUTE SEGMENTED NEUTROPHIL [2]: 1084.33 CELLS/uL
- BASOPHIL [2]: 0%
- EOSINOPHIL [2]: 0.17%
- ERYTHROCYTE COUNT [2]: 5.71 x10E6/uL
- HEMATOCRIT [2]: 35.28%
- HEMOGLOBIN [2]: 14.27 G/DL
- LEUKOCYTE COUNT [2]: 16.08 x10E3/uL
- LYMPHOCYTE [2]: 93%
- MEAN CORPUSCULAR HEMOGLOBIN [2]: 25.02 pg
- MEAN CORPUSCULAR HEMOGLOBIN CONCENTRATION [2]: 40.43 G/DL
- MEAN CORPUSCULAR VOLUME [2]: 61.82 fL
- MONOCYTE [2]: 0.17%
- NEUTROPHIL [2]: 6.67%
- NUCLEATED RED BLOOD CELLS [2]: 0.33 /100WBC
- PLATELET COUNT [2]: 1274 x10E3/uL
- ALANINE AMINOTRANSFERASE [2]: 54.17 u/L
- ALBUMIN [2]: 4.22 G/DL
- ALKALINE PHOSPHATASE [2]: 373.17 u/L
- ASPARTATE AMINOTRANSFERASE [2]: 81.83 u/L
- BLOOD UREA NITROGEN [2]: 16.67 mg/dL
- CARBON DIOXIDE [2]: 30.33 mmol/L
- CHLORIDE [2]: 99 MEQ/L
- CHOLESTEROL [2]: 71 mg/dL
- CREATINE PHOSPHOKINASE [2]: 273.5 u/L
- CREATININE [2]: 0.22 mg/dL
- GLUCOSE [2]: 141.83 mg/dL
- LACTATE DEHYDROGENASE [2]: 153.67 u/L
- LIPASE [2]: 10.33 u/L
- PHOSPHORUS [2]: 11.38 mg/dL
- POTASSIUM [2]: 7.08 MEQ/L
- SODIUM [2]: 142.75 MEQ/L
- TOTAL BILIRUBIN [2]: 0.18 mg/dL
- TOTAL PROTEIN [2]: 6.1 G/DL
- URIC ACID [2]: 1.67 mg/dL
- ABSOLUTE BASOPHIL [3]: 0 CELLS/uL
- ABSOLUTE EOSINOPHIL [3]: 0 CELLS/uL
- ABSOLUTE LYMPHOCYTE [3]: 14618 CELLS/uL
- ABSOLUTE MONOCYTE [3]: 0 CELLS/uL
- ABSOLUTE SEGMENTED NEUTROPHIL [3]: 1248.67 CELLS/uL
- BASOPHIL [3]: 0%
- EOSINOPHIL [3]: 0%
- ERYTHROCYTE COUNT [3]: 5.99 x10E6/uL
- HEMATOCRIT [3]: 37.8%
- HEMOGLOBIN [3]: 15 G/DL
- LEUKOCYTE COUNT [3]: 15.87 x10E3/uL
- LYMPHOCYTE [3]: 92.33%
- MEAN CORPUSCULAR HEMOGLOBIN [3]: 25.1 pg
- MEAN CORPUSCULAR HEMOGLOBIN CONCENTRATION [3]: 39.73 G/DL
- MEAN CORPUSCULAR VOLUME [3]: 63.2 fL
- MONOCYTE [3]: 0%
- NEUTROPHIL [3]: 7.67%
- NUCLEATED RED BLOOD CELLS [3]: 0 /100WBC
- PLATELET COUNT [3]: 1182.33 x10E3/uL
- ALANINE AMINOTRANSFERASE [3]: 58.67 u/L
- ALBUMIN [3]: 4.3 G/DL
- ALKALINE PHOSPHATASE [3]: 350.33 u/L
- ASPARTATE AMINOTRANSFERASE [3]: 86.33 u/L
- BLOOD UREA NITROGEN [3]: 17.33 mg/dL
- CARBON DIOXIDE [3]: 33.33 mmol/L
- CHLORIDE [3]: 99 MEQ/L
- CHOLESTEROL [3]: 100.67 mg/dL
- CREATINE PHOSPHOKINASE [3]: 190.67 u/L
- CREATININE [3]: 0.21 mg/dL
- GLUCOSE [3]: 155.33 mg/dL
- LACTATE DEHYDROGENASE [3]: 170.67 u/L
- LIPASE [3]: 9.67 u/L
- PHOSPHORUS [3]: 12.27 mg/dL
- POTASSIUM [3]: 7.02 MEQ/L
- SODIUM [3]: 145.6 MEQ/L
- TOTAL BILIRUBIN [3]: 0.23 mg/dL
- TOTAL PROTEIN [3]: 6.23 G/DL
- URIC ACID [3]: 1.33 mg/dL
